{"source": "paper PMC11851430", "about": "“Workflow for E3 Ligase Ligand Validation for PROTAC Development” (ACS Chemical Biology, 2025)", "key": {"ITK": {"molecular_target": "T1, ITK (Homo sapiens, UniProt Q08881)", "T1 construct": "endogenous in cells; host or cells: Jurkat", "T1 sequence (Q08881 1-620)": "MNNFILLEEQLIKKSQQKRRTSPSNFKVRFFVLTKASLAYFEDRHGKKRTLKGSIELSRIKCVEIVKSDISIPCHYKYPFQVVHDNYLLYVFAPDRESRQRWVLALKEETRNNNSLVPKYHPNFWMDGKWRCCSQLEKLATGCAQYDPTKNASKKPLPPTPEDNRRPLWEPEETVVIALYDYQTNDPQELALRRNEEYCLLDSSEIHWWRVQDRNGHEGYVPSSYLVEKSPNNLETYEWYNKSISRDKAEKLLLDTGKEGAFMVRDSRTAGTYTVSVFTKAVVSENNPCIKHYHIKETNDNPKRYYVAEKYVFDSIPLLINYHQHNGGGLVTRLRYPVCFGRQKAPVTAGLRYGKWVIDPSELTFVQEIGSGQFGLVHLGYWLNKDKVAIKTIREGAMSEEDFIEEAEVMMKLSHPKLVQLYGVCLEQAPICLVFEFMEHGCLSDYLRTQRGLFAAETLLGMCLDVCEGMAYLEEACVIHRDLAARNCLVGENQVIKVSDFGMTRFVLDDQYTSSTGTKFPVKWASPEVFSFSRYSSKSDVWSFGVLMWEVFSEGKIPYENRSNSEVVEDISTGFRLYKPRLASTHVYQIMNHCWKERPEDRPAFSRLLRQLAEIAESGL", "test": "Western blot assay", "type": "cell-based", "settings": "Jurkat cells, 6 h", "method": "Two mL of Jurkat cells were seeded into 6 well plates (Greiner) at a density of 5·10 5 cells/mL.\nThe following day, cells were treated with compounds at according concentrations or DMSO for 6 hours and then lysed with 6 M Urea at 4 °C for 20 minutes. The lysates were centrifuged for 15 minutes at 16000 g and the supernatant was collected to perform the Western-Blot.\nProtein quantification was performed using nanodrop One. The SDS samples were prepared […]\nThe samples were separated by a BIS-TRIS polyacrylamide gel polyacrylamide gel, 100 V for 1:45) followed by transfer to PVDF membranes (Millipore) at 350 mA for 140 minutes. The membranes were blocked using 5%wt/vol BSA (in TBS-T, 20 mM Tris-HCl, pH 7.5, 150 mM NaCl and 0.1% (vol/vol) Tween 20) at room temperature for 1 hour.\n(§1) The blots were incubated with respective primary antibodies at 1:1000 dilution (Cell Signaling technologies: Aurora A (D3E4Q), ITK (2F12) and GAPDH (D4C6R)) at 4 °C overnight. The blots were washed with TBS-T thrice and incubated with 1:5000 dilution of horseradish peroxidase (HRP)-labelled respective secondary antibodies (Cell Signaling technologies, Anti- […]\n(§2) The blots were washed with TBS-T thrice and then incubated with chemiluminescent HRP substrate (Bio-Rad) for 2 minutes. The blots were imaged and the signals were detected using the Amersham ImageQuant 800 (Cytiva).\n(§3) Cell culture. Human MV4-11 ([…]) and human Jurkat ([…]) cells were cultured in RPMI- […]\n(§4) °C in 5% CO2. Both media were supplemented with 10% FBS and 1% penicillin/streptomycin. […]"}, "AURKA^HiBiT": {"molecular_target": "T2, AURKA^HiBiT (Homo sapiens, UniProt O14965)", "T2 construct": "expressed in transfected cells", "T2 sequence (O14965 1-403)": "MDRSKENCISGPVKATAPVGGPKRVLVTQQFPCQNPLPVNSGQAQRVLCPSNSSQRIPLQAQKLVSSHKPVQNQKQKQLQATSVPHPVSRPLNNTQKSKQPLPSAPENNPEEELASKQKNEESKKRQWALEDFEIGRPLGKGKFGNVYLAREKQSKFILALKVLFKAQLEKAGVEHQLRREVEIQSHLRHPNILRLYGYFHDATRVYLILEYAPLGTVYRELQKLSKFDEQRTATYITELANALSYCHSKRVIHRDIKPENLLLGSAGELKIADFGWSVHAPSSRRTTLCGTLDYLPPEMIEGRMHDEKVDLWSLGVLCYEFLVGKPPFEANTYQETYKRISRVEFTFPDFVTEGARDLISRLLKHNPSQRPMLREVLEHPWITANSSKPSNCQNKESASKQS", "test": "HiBiT assay, MV4-11 cells expressing AURKA^HiBiT", "type": "cell-based", "settings": "6 h; for AURKA^HiBiT protein levels: MV4-11 cells; for rescue of AURKA degradation by cotreatment with proteasome inhibitor MG132 / rescue of AURKA levels by cotreatment with neddylation inhibitor MLN4924: MV4-11 AURKA^HiBiT cells", "method": "as §1, §2, §3, §4\nCell line generation. The stable cell line MV4-11 AURORA−HiBiT was generated as previously described.14 Lentiviral infection was used to generate the stable Jurkat HiBiT cell line. […] HiBiT Measurements. HiBiT assay was performed as described previously. 14 Briefly, MV4-11 and Jurkat HiBiT cells were seeded and treated with compounds for the indicated time. Nano-Glo HiBiT Lytic Detection System (Promega) was used for the assay and luminescence was measured on a Tecan Spark Multiplate reader (Tecan). DC50s were calculated using the dose-response (four parameters) equation in Prism (GraphPad)."}, "DCAMKL1A": {"molecular_target": "T3, DCAMKL1A (Homo sapiens, UniProt O15075)", "T3 construct": "purchased in-house DSF panel (SGC-style construct names; the trailing A/B is a construct suffix)", "T3 sequence (O15075 372-649)": "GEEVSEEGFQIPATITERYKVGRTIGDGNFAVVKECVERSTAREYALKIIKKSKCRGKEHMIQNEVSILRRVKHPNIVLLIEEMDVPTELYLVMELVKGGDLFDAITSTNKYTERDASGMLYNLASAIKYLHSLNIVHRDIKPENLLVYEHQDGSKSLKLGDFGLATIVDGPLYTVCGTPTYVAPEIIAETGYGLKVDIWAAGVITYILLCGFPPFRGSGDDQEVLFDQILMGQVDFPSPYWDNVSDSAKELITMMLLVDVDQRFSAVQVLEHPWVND", "test": "DSF assay", "type": "binding", "settings": "20 µM compound"}, "CAMKK2B": {"molecular_target": "T4, CAMKK2B (Homo sapiens, UniProt Q96RR4)", "T4 construct": "purchased in-house DSF panel (SGC-style construct names; the trailing A/B is a construct suffix)", "T4 sequence (Q96RR4 161-449)": "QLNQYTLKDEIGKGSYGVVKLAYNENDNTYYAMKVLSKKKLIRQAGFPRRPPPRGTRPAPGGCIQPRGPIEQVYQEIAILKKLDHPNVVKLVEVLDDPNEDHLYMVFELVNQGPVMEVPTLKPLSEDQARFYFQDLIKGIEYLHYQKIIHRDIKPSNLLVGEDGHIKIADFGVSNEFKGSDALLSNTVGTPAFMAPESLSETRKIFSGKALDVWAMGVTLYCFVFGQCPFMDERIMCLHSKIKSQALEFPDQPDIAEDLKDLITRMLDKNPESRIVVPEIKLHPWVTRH", "test": "DSF assay", "type": "binding", "settings": "20 µM compound"}, "PIM3A": {"molecular_target": "T5, PIM3A (Homo sapiens, UniProt Q86V86)", "T5 construct": "purchased in-house DSF panel (SGC-style construct names; the trailing A/B is a construct suffix)", "test": "DSF assay", "type": "binding", "settings": "20 µM compound"}, "OSR1A": {"molecular_target": "T6, OSR1A (Homo sapiens, UniProt O95747)", "T6 construct": "purchased in-house DSF panel (SGC-style construct names; the trailing A/B is a construct suffix)", "T6 sequence (O95747 17-291)": "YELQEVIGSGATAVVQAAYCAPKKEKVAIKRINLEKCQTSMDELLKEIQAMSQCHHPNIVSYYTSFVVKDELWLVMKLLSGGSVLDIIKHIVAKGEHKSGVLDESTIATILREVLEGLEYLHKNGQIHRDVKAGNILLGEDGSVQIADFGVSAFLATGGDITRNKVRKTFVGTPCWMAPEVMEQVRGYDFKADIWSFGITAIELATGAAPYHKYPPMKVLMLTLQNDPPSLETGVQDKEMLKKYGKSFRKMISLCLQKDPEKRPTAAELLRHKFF", "test": "DSF assay", "type": "binding", "settings": "20 µM compound"}, "FLT1": {"molecular_target": "T7, FLT1 (Homo sapiens, UniProt P17948)", "T7 construct": "purchased in-house DSF panel (SGC-style construct names; the trailing A/B is a construct suffix)", "T7 sequence (P17948 801-1158)": "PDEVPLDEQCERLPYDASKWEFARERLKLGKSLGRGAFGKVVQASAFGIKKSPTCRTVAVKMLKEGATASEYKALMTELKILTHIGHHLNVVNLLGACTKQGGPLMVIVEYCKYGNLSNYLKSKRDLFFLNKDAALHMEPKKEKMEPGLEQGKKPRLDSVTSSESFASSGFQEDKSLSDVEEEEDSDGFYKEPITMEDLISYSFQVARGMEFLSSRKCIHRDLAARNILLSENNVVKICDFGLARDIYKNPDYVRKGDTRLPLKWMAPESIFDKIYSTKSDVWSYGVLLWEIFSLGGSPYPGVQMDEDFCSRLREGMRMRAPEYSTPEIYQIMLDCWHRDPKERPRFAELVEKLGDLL", "test": "DSF assay", "type": "binding", "settings": "20 µM compound"}}, "data": [{"compound": "Cc1ncsc1-c1ccc(CNC(=O)[C@@H]2C[C@H](O)CN2C(=O)[C@@H](NC(=O)CCOCCOCCOCCN2CCN(c3cc(Nc4cc(C5CC5)[nH]n4)nc(Nc4ccc(CC#N)cc4)n3)CC2)C(C)(C)C)cc1", "note": "[4-a^neg]", "values": [{"measurement": "ITK protein levels (Western blot)", "setting": "ITK", "result": "did not cause any degradation of ITK"}, {"measurement": "AURKA^HiBiT protein levels", "setting": "AURKA^HiBiT", "result": "weak reduction of AURKA levels"}]}, {"compound": "Cc1ncsc1-c1ccc(CNC(=O)[C@@H]2C[C@@H](O)CN2C(=O)[C@@H](NC(=O)CCOCCOCCOCCOCCN2CCN(c3ccc(Nc4ncc(Cl)c(Nc5ccccc5C(N)=O)n4)cc3)CC2)C(C)(C)C)cc1", "note": "[6-b]", "values": [{"measurement": "ITK protein levels (Western blot)", "setting": "ITK", "result": "dose-dependent degradation of ITK"}, {"measurement": "rescue of AURKA degradation by cotreatment with proteasome inhibitor MG132", "setting": "AURKA^HiBiT", "result": "complete rescue"}, {"measurement": "rescue of AURKA levels by cotreatment with neddylation inhibitor MLN4924", "setting": "AURKA^HiBiT", "result": "only partial rescue"}, {"measurement": "AURKA^HiBiT protein levels", "setting": "AURKA^HiBiT", "result": "dose-dependent degradation of AURKA"}]}, {"compound": "Cc1ncsc1-c1ccc(CNC(=O)[C@@H]2C[C@@H](O)CN2C(=O)[C@@H](NC(=O)CCOCCOCCOCCN2CCN(c3cc(Nc4cc(C5CC5)[nH]n4)nc(Nc4ccc(CC#N)cc4)n3)CC2)C(C)(C)C)cc1", "note": "[4-a]", "values": [{"measurement": "ITK protein levels (Western blot)", "setting": "ITK", "result": "dose-dependent degradation of ITK"}, {"measurement": "rescue of AURKA degradation by cotreatment with proteasome inhibitor MG132", "setting": "AURKA^HiBiT", "result": "complete rescue"}, {"measurement": "rescue of AURKA levels by cotreatment with neddylation inhibitor MLN4924", "setting": "AURKA^HiBiT", "result": "only partial rescue"}, {"measurement": "AURKA^HiBiT protein levels", "setting": "AURKA^HiBiT", "result": "dose-dependent degradation of AURKA"}]}, {"compound": "CCOC(=O)c1cc(Nc2cc(C3CC3)[nH]n2)nc(Nc2ccc(CC#N)cc2)n1", "note": "[compound 5]", "values": [{"measurement": "ΔTm at 20 µM", "setting": "DCAMKL1A", "result": 0.68, "unit": "°C"}, {"measurement": "ΔTm at 20 µM", "setting": "CAMKK2B", "result": 9.77, "unit": "°C"}, {"measurement": "ΔTm at 20 µM", "setting": "PIM3A", "result": -0.28, "unit": "°C"}, {"measurement": "ΔTm at 20 µM", "setting": "OSR1A", "result": 3.5, "unit": "°C"}, {"measurement": "ΔTm at 20 µM", "setting": "FLT1", "result": 9.16, "unit": "°C"}]}, {"compound": "CC(C)(C)OC(=O)NCCCOCCOCCOCCCNC(=O)c1cc(Nc2cc(C3CC3)[nH]n2)nc(Nc2ccc(CC#N)cc2)n1", "note": "[5-L]", "values": [{"measurement": "ΔTm at 20 µM", "setting": "DCAMKL1A", "result": 4.7, "unit": "°C"}, {"measurement": "ΔTm at 20 µM", "setting": "CAMKK2B", "result": 10.7, "unit": "°C"}, {"measurement": "ΔTm at 20 µM", "setting": "PIM3A", "result": 0.61, "unit": "°C"}, {"measurement": "ΔTm at 20 µM", "setting": "OSR1A", "result": 3.94, "unit": "°C"}, {"measurement": "ΔTm at 20 µM", "setting": "FLT1", "result": 8.06, "unit": "°C"}]}, {"compound": "Cc1ncsc1-c1ccc(CNC(=O)[C@@H]2C[C@H](O)CN2C(=O)[C@@H](NC(=O)CCOCCOCCOCCOCCN2CCN(c3ccc(Nc4ncc(Cl)c(Nc5ccccc5C(N)=O)n4)cc3)CC2)C(C)(C)C)cc1", "note": "[6-b^neg]", "values": [{"measurement": "ITK protein levels (Western blot)", "setting": "ITK", "result": "did not cause any degradation of ITK"}, {"measurement": "AURKA^HiBiT protein levels", "setting": "AURKA^HiBiT", "result": "weak reduction of AURKA levels"}]}, {"compound": "CC(C)(C)OC(=O)NCCOCCOCCOCCOCCC(=O)N1CCN(c2cc(Nc3cc(C4CC4)[nH]n3)nc(Nc3ccc(CC#N)cc3)n2)CC1", "note": "[4-L]", "values": [{"measurement": "ΔTm at 20 µM", "setting": "DCAMKL1A", "result": 0.22, "unit": "°C"}, {"measurement": "ΔTm at 20 µM", "setting": "CAMKK2B", "result": 15.4, "unit": "°C"}, {"measurement": "ΔTm at 20 µM", "setting": "PIM3A", "result": -4.95, "unit": "°C"}, {"measurement": "ΔTm at 20 µM", "setting": "OSR1A", "result": 3.71, "unit": "°C"}, {"measurement": "ΔTm at 20 µM", "setting": "FLT1", "result": 11.7, "unit": "°C"}]}]}
